Measured values taken from patent US20060030603A1, “Novel aryl urea analogs and use thereof as antibacterial agents” (priority 2004, published 2006).
Values after ≈ are worked out from the molar mass of the structure shown. Read-outs that look alike come from different tables or passages of the source.

How the values were obtained:
[1] = tested on: S. aureus ATCC 13709; experiment: MIC assay, S. aureus; type: cell-based
Procedure: (§1) In vitro structure/activity relationship (“SAR”) tests were performed according to the following procedure: MIC assays were carried out in a 150 μL volume in duplicate in 96-well clear flat-bottom plates. The bacterial suspension from an overnight culture growth in the appropriate medium was added to a solution of test compound in 0.5% DMSO in water. Final bacterial inoculum was approximate 10^3-10^4 CFU/well. The percentage growth of the bacteria in the test wells relative to that observed for a control well containing no compound was determined by measuring absorbance at 595 nm (A595) after 20-24 h at 37° C. […] The bacterial strains used for the assays include S. aureus ATCC 13709, S. pyogenes ATCC 49399, E. faecalis ATCC 29212, E. faecium ATCC 6569, E. coli ATCC 25922, K. pneumoniae ATCC 13383, P. vulgaris ATCC 8427, P. aeruginosa ATCC 25416. The results of the in vitro SAR tests are in Tables 1-3.

[2] = tested on: S. pyogenes ATCC 49399; experiment: MIC assay, S. pyogenes; type: cell-based
Procedure: as §1

[3] = tested on: E. faecalis ATCC 29212; experiment: MIC assay, E. faecalis; type: cell-based
Procedure: as §1

[4] = tested on: E. faecium ATCC 6569; experiment: MIC assay, E. faecium; type: cell-based
Procedure: as §1

[5] = tested on: E. coli ATCC 25922; experiment: MIC assay, E. coli; type: cell-based
Procedure: as §1

[6] = tested on: K. pneumoniae ATCC 13383; experiment: MIC assay, K. pneumoniae; type: cell-based
Procedure: as §1

[7] = tested on: P. vulgaris ATCC 8427; experiment: MIC assay, P. vulgaris; type: cell-based
Procedure: as §1

[8] = tested on: P. aeruginosa ATCC 25416; experiment: MIC assay, P. aeruginosa; type: cell-based
Procedure: as §1

[9] = log P; type: physicochemical
[10] = tested on: S. aureus (ATCC 13709); experiment: Mouse Protection Assay (lethal murine model of bacterial infection); type: in vivo, ICR-CD-1 female mice; conditions: 1 × 2 mg/Kg, positive control, 1 h and 3 h post infection, one week
Procedure: The in vivo tests were preformed according to the following procedure:
Mouse Protection Assay: 10 mice/dose group (ICR-CD-1 female mice 18-20 grams, Charles River) were infected with a lethal dose (10^6 CFU/mouse) of S. aureus (ATCC 13709) suspended in 7.5% hog Gastric Mucin IP. The infected animals were treated at 1 h and 3 h post infection with either compound 12e (lactate salt) from 37 mg/kg down to 2.3 mg/kg or compound 14b (HCl salt) from 75 mg/kg down to 2.3 mg/kg (0.1 mL/mouse). The positive control drug was Vancomycin (Eli Lilly) 1 mg/kg.

[11] = Staphylococcus aureus, ATCC13709, read-out: MIC S. aureus
[12] = Table 1, thiourea/urea analogs, acetate salts
[13] = Staphylococcus aureus, ATCC13709, Table 2, benzylamino group modified analogs, read-out: MIC S. aureus
[14] = Table 2, benzylamino group modified analogs

## O=C(NCCCNCc1cc(Br)cc(Br)c1)Nc1ccc(Cl)c(Cl)c1 [9f, 1-[3-(3,5-Dibromo-benzylamino)-propyl]-3-(3,4-dichloro-phenyl)-urea]
[1]; [11]
  MIC: 3 to 6 µM (≈ 1.53 to 3.06 µg/mL)
[1]; Staphylococcus aureus, ATCC13709, read-out: MIC S. aureus ATCC 13709
  MIC: 3 to 6 µM (≈ 1.53 to 3.06 µg/mL)
[2]; Streptococcus pyogenes, ATCC49399, read-out: MIC S. pyogenes ATCC 49399
  MIC: 6 to 12 µM (≈ 3.06 to 6.12 µg/mL)
[3]; Enterococcus faecalis, ATCC29212, read-out: MIC E. faecalis ATCC 29212
  MIC: 6 to 12 µM (≈ 3.06 to 6.12 µg/mL)
[4]; Enterococcus faecium, ATCC6569, read-out: MIC E. faecium ATCC 6569
  MIC: > 100 µM
[5]; Escherichia coli, ATCC25922, read-out: MIC E. coli ATCC 25922
  MIC: 12 to 25 µM (≈ 6.12 to 12.8 µg/mL)
[6]; Klebsiella pneumoniae, ATCC13383, read-out: MIC K. pneumoniae ATCC 13383
  MIC: 6 to 12 µM (≈ 3.06 to 6.12 µg/mL)
[7]; Proteus vulgaris, ATCC8427, read-out: MIC P. vulgaris ATCC 8427
  MIC: 12 to 25 µM (≈ 6.12 to 12.8 µg/mL)
[8]; Pseudomonas aeruginosa, ATCC25416, read-out: MIC P. aeruginosa ATCC 25416
  MIC: > 100 µM
[9]
  logP: 4.89

## O=C(NCCCNCc1ccc(Br)[nH]1)Nc1ccc(C(F)(F)F)cc1 [15e, 1-{3-[(5-bromo-1H-pyrrol-2-ylmethyl)-amino]-propyl}-3-(4-trifluoromethyl-phenyl)-urea]
[1]; Staphylococcus aureus, ATCC13709, Table 3, heteroaryl analogs, read-out: MIC S. aureus
  MIC: 3 to 6 µM (≈ 1.26 to 2.52 µg/mL)

## Fc1ccccc1NC(=S)NCCCNCc1cc(Br)cc(Br)c1 [8a]
[1]; [12]
  MIC S. aureus: 25 to 50 µM

## Fc1ccc(NC(=S)NCCCNCc2cc(Br)cc(Br)c2)cc1 [8l]
[1]; [12]
  MIC S. aureus: 12 to 25 µM

## CC(C)(C)c1ccc(CNCCCNC(=O)Nc2ccc(C(F)(F)F)cc2)cc1 [12i, 1-[3-(4-tert-Butyl-benzylamino)-propyl]-3-(4-trifluoromethyl-phenyl)-urea]
[1]; [13]
  MIC: 3 to 6 µM (≈ 1.22 to 2.44 µg/mL)
[1]; Staphylococcus aureus, ATCC13709, Table 4, read-out: MIC S. aureus ATCC 13709
  MIC: 3 to 6 µM (≈ 1.22 to 2.44 µg/mL)
[2]; Streptococcus pyogenes, ATCC49399; read-out: MIC S. pyogenes ATCC 49399
  MIC: 3 to 6 µM (≈ 1.22 to 2.44 µg/mL)
[3]; Enterococcus faecalis, ATCC29212; read-out: MIC E. faecalis ATCC 29212
  MIC: 6 to 12 µM (≈ 2.44 to 4.89 µg/mL)
[4]; Enterococcus faecium, ATCC6569; read-out: MIC E. faecium ATCC 6569
  MIC: 3 to 6 µM (≈ 1.22 to 2.44 µg/mL)
[5]; Escherichia coli, ATCC25922; read-out: MIC E. coli ATCC 25922
  MIC: 6 to 12 µM (≈ 2.44 to 4.89 µg/mL)
[6]; Klebsiella pneumoniae, ATCC13383; read-out: MIC K. pneumoniae ATCC 13383
  MIC: 3 to 6 µM (≈ 1.22 to 2.44 µg/mL)
[7]; Proteus vulgaris, ATCC8427; read-out: MIC P. vulgaris ATCC 8427
  MIC: 12 to 25 µM (≈ 4.89 to 10.2 µg/mL)
[8]; Pseudomonas aeruginosa, ATCC25416; read-out: MIC P. aeruginosa ATCC 25416
  MIC: > 100 µM
[9]
  logP: 4.94

## CC(=O)Nc1ccc(CNCCCNC(=O)Nc2ccc(C(F)(F)F)cc2)cc1 [12k]
[1]; Table 2, benzylamino group modified analogs, read-out: MIC S. aureus
  MIC: >100 µM

## Fc1ccc(NC(=S)NCCCNCc2cc(Br)cc(Br)c2)c(F)c1F [8e]
[1]; [12]
  MIC S. aureus: 6 to 12 µM

## CCOc1ccc(Br)cc1CNCCCNC(=O)Nc1ccc(C(F)(F)F)cc1 [12u]
[1]; [14]
  MIC S. aureus: 6 to 12 µM

## CN[C@H](CC(C)C)C(=O)N[C@H]1C(=O)N[C@@H](CC(N)=O)C(=O)N[C@H]2C(=O)N[C@H]3C(=O)N[C@H](C(=O)N[C@H](C(=O)O)c4cc(O)cc(O)c4-c4cc3ccc4O)[C@H](O)c3ccc(c(Cl)c3)Oc3cc2cc(c3O[C@@H]2O[C@H](CO)[C@@H](O)[C@H](O)[C@H]2O[C@H]2C[C@](C)(N)[C@H](O)[C@H](C)O2)Oc2ccc(cc2Cl)[C@H]1O [Vancomycin, reference compound]
[10]
  Mice Alive/Total: 10/10

## Fc1cccc(NC(=S)NCCCNCc2cc(Br)cc(Br)c2)c1 [8f]
[1]; [12]
  MIC S. aureus: 12 to 25 µM

## S=C(NCCCNCc1cc(Br)cc(Br)c1)Nc1ccc(I)cc1 [8o]
[1]; [12]
  MIC S. aureus: 12 to 25 µM

## FC(F)(F)c1cccc(NC(=S)NCCCNCc2cc(Br)cc(Br)c2)c1 [8i]
[1]; [12]
  MIC S. aureus: 6 to 12 µM

## CSc1ccccc1NC(=S)NCCCNCc1cc(Br)cc(Br)c1 [8d]
[1]; [12]
  MIC S. aureus: 50 to 100 µM

## O=C(NCCCNCc1cc(Cl)cc(Cl)c1)Nc1ccc(C(F)(F)F)cc1 [12m]
[1]; [14]
  MIC S. aureus: 6 to 12 µM

## COc1ccc(-c2ccc(CNCCCNC(=O)Nc3ccc(C(F)(F)F)cc3)cc2)cc1 [12f]
[1]; [14]
  MIC S. aureus: 3 to 6 µM

## COc1ccccc1-c1ccc(CNCCCNC(=O)Nc2ccc(C(F)(F)F)cc2)cc1 [12g]
[1]; [14]
  MIC S. aureus: 6 to 12 µM

## O=C(NCCCNCc1cc(Br)cc(Br)c1)Nc1ccc(C(F)(F)F)cc1 [9d, 1-[3-(3,5-Dibromo-benzylamino)-propyl]-3-(4-trifluoromethyl-phenyl)-urea]
[1]; [11]
  MIC: 3 to 6 µM (≈ 1.53 to 3.05 µg/mL)
[1]; [14]
  MIC S. aureus: 3 to 6 µM

## O=C(NCCCNCc1ccc(OC(F)(F)F)cc1)Nc1ccc(C(F)(F)F)cc1 [12d]
[1]; [14]
  MIC S. aureus: 3 to 6 µM

## S=C(NCCCNCc1cc(Br)cc(Br)c1)Nc1cccc(Br)c1 [8h]
[1]; [12]
  MIC S. aureus: 6 to 12 µM

## O=C(NCCCNCc1cc(Br)cc(Br)c1)Nc1cccc(C(F)(F)F)c1 [9b]
[1]; [12]
  MIC S. aureus: 6 to 12 µM

## O=C(NCCCNCCCOc1ccc(Br)cc1Br)Nc1ccc(C(F)(F)F)cc1 [14a, 1-{3-[3-(2,4-Dibromo-phenoxy)-propylamino]-propyl}-3-(4-trifluoromethyl-phenyl)-urea]
[1]; [13]
  MIC: 3 to 6 µM (≈ 1.66 to 3.32 µg/mL)

## S=C(NCCCNCc1cc(Br)cc(Br)c1)Nc1ccc(Br)cc1 [8n]
[1]; [12]
  MIC S. aureus: 12 to 25 µM

## CSc1ccc(NC(=O)NCCCNCc2cc(Br)cc(Br)c2)cc1 [9e]
[1]; [12]
  MIC S. aureus: 25 to 50 µM
